Experimental data taken from ChEMBL document CHEMBL5331145, “Discovery of a Novel Bifunctional Steroid Analog, YXG-158, as an Androgen Receptor Degrader and CYP17A1 Inhibitor for the Treatment of Enzalutamide-Resistant Prostate Cancer” (J Med Chem, 2023).

Legend:
LNCaP = experiment: Antiproliferative activity against human LNCaP cells incubated for 6 days by CellTiter-Glo assay; format: functional, cell-based
[1] = molecular target: Voltage-gated inwardly rectifying potassium channel KCNH2 (Homo sapiens, UniProt Q12809); experiment: Inhibition of human ERG by patch clamp assay; format: toxicity
Androgen receptor = molecular target: T1, Androgen receptor (Homo sapiens, UniProt P10275); experiment: Induction of androgen receptor degradation in human LNCaP cells incubated for 24 hrs by ELISA; format: cell-based
T1 sequence (P10275 whole entry): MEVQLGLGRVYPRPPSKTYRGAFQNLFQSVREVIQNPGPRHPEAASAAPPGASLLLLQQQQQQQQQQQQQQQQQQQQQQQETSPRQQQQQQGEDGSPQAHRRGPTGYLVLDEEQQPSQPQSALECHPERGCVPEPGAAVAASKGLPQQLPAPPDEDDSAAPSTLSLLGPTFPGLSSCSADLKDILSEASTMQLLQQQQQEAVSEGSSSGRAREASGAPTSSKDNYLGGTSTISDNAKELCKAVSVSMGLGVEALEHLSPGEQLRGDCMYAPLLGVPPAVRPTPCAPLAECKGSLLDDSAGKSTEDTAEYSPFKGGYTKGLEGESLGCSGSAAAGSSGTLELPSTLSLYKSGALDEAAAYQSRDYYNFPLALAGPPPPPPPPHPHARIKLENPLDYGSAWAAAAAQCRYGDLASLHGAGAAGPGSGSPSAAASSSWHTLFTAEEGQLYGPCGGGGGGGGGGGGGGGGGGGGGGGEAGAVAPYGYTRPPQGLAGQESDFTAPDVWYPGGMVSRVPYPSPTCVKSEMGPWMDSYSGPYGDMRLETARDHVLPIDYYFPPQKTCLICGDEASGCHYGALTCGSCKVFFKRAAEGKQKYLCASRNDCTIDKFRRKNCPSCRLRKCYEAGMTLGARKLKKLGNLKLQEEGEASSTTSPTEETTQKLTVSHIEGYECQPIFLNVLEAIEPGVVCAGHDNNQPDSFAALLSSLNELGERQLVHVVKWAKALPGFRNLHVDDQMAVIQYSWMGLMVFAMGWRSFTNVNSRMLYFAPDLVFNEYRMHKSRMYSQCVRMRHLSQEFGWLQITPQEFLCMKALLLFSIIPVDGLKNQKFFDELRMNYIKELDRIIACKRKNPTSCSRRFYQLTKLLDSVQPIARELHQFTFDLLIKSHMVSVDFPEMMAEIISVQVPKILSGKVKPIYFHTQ

[2] = molecular target: T2, Steroid 17-alpha-hydroxylase/17,20 lyase (Homo sapiens, UniProt P05093); experiment: Inhibition of recombinant human CYP17A1 using progesterone as substrate incubated for 5 mins in presence of NADPH by LC-MS/MS analysis; format: ADME
T2 sequence (P05093 whole entry): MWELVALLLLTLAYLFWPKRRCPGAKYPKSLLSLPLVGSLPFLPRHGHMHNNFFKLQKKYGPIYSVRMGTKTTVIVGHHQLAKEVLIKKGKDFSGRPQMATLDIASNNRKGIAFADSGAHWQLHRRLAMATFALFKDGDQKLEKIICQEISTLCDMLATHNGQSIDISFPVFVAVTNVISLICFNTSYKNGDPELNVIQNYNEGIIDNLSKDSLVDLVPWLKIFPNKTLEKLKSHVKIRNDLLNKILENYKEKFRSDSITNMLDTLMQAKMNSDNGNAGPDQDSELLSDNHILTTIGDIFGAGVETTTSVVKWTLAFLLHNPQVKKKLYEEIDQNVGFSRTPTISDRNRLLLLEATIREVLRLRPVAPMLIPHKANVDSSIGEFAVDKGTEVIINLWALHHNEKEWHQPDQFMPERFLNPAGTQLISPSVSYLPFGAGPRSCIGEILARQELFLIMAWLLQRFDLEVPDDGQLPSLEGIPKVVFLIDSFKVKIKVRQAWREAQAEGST

[3] = Half life in Sprague-Dawley rat at 10 mg/kg, po measured upto 24 hrs by LC-MS/MS analysis; format: ADME, organism-based; conditions: in vivo
[4] = Tmax in Sprague-Dawley rat at 10 mg/kg, po measured upto 24 hrs by LC-MS/MS analysis; format: ADME, organism-based; conditions: in vivo
[5] = Cmax in Sprague-Dawley rat at 10 mg/kg, po measured upto 24 hrs by LC-MS/MS analysis; format: ADME, organism-based; design: dose 10 mg/kg, time < 24 hrs, route po; conditions: in vivo
[6] = AUC(0 to t) in Sprague-Dawley rat at 10 mg/kg, po measured upto 24 hrs by LC-MS/MS analysis; format: ADME, organism-based; conditions: in vivo
[7] = Effect on androgen sensitive organs in testosterone propionate stimulated castrated male Sprague-Dawley rat assessed as seminal vesicles weight loss at 20 mg/kg, po administered once daily for 10 days and measured 24 hrs post last dose; format: functional; conditions: time 11 day
[8] = Effect on androgen sensitive organs in testosterone propionate stimulated castrated male Sprague-Dawley rat assessed as ventral prostate weight loss at 20 mg/kg, po administered once daily for 10 days and measured 24 hrs post last dose; format: functional; conditions: time 11 day
[9] = Antitumor activity against human LNCaP/AR cells xenografted in SCID male mouse assessed as tumor growth inhibition at 10 mg/kg, po administered once daily for 28 days and measured every 3 days; format: functional; conditions: Homo sapiens, LNCaP/AR, 672 h, time 28 day, read-out: TGI
[10] = Toxicity in SCID male mouse xenografted with human LNCaP/AR cells assessed as tolerability at 10 to 30 mg/kg, po administered once daily for 28 days and measured every 3 days; format: organism-based; conditions: in vivo, 672 h, dose 10-30 mg/kg, time 28 day
[11] = Toxicity in SCID male mouse xenografted with human LNCaP/AR cells assessed as animal weight loss at 10 to 30 mg/kg, po administered once daily for 28 days and measured every 3 days; format: organism-based; conditions: in vivo, 672 h, dose 10-30 mg/kg, time 28 day
[12] = Toxicity in BALB/c mouse xenografted with enzalutamide resistant human LNCaP C4-2B cells assessed as body weight loss at 10 to 30 mg/kg, po administered once daily for 28 days and measured every 3 days; format: organism-based; conditions: in vivo, 672 h, dose 10-30 mg/kg, time 28 day
Progesterone receptor = Progesterone receptor (Homo sapiens, UniProt P06401); experiment: Antagonist activity at PR (unknown origin)
Glucocorticoid receptor = Glucocorticoid receptor (Homo sapiens, UniProt P04150); experiment: Antagonist activity at GR (unknown origin)
Estrogen receptor = Estrogen receptor (Homo sapiens, UniProt P03372); experiment: Antagonist activity at ERalpha (unknown origin)
Cytochrome P450 1A2 = Cytochrome P450 1A2 (Homo sapiens, UniProt P05177); experiment: Inhibition of CYP1A2 (unknown origin); format: ADME
Cytochrome P450 2C19 = Cytochrome P450 2C19 (Homo sapiens, UniProt P33261); experiment: Inhibition of CYP2C19 (unknown origin); format: ADME
Cytochrome P450 2C9 = Cytochrome P450 2C9 (Homo sapiens, UniProt P11712); experiment: Inhibition of CYP2C9 (unknown origin); format: ADME
Cytochrome P450 2D6 = Cytochrome P450 2D6 (Homo sapiens, UniProt P10635); experiment: Inhibition of CYP2D6 (unknown origin); format: ADME
Cytochrome P450 3A4 [13] = molecular target: T3, Cytochrome P450 3A4 (Homo sapiens, UniProt P08684); experiment: Inhibition of CYP3A4 (unknown origin) using midazolam substrate; format: ADME
Cytochrome P450 3A4 [14] = molecular target: T3, Cytochrome P450 3A4; experiment: Inhibition of CYP3A4 (unknown origin) using testosterone as substrate; format: ADME
[15] = system: GABA-A receptor; anion channel; experiment: Antagonist activity at GABA-A (unknown origin) at 40 uM relative to control; format: toxicity; conditions: human
[16] = Mutagenicity in Salmonella typhimurium TA98 in presence of liver S9 fraction by AMES test; format: toxicity, subcellular; conditions: salmonella enterica subsp. enterica serovar typhimurium
[17] = Mutagenicity in Salmonella typhimurium TA100 in presence of liver S9 fraction by AMES test; format: toxicity, subcellular; conditions: salmonella enterica subsp. enterica serovar typhimurium
[18] = Mutagenicity in Salmonella typhimurium TA1535 in presence of liver S9 fraction by AMES test; format: toxicity, subcellular; conditions: salmonella enterica subsp. enterica serovar typhimurium
[19] = Mutagenicity in Salmonella typhimurium TA1537 in presence of liver S9 fraction by AMES test; format: toxicity, subcellular; conditions: salmonella enterica subsp. enterica serovar typhimurium
[20] = Mutagenicity in Escherichia coli WP2 uvrA in presence of liver S9 fraction by AMES test; format: toxicity, subcellular
[21] = Mutagenicity in Salmonella typhimurium TA98 in absence of liver S9 fraction by AMES test; format: toxicity; conditions: salmonella enterica subsp. enterica serovar typhimurium
[22] = Mutagenicity in Salmonella typhimurium TA100 in absence of liver S9 fraction by AMES test; format: toxicity; conditions: salmonella enterica subsp. enterica serovar typhimurium
[23] = Mutagenicity in Salmonella typhimurium TA1535 in absence of liver S9 fraction by AMES test; format: toxicity; conditions: salmonella enterica subsp. enterica serovar typhimurium
[24] = Mutagenicity in Salmonella typhimurium TA1537 in absence of liver S9 fraction by AMES test; format: toxicity; conditions: salmonella enterica subsp. enterica serovar typhimurium
[25] = Mutagenicity in Escherichia coli WP2 uvrA in absence of liver S9 fraction by AMES test; format: toxicity
[26] = Genotoxicity in CHL cells in absence of rat liver S9 fraction by micronucleus test; format: toxicity, cell-based, Cricetulus griseus; conditions: chinese hamster
[27] = Genotoxicity in CHL cells in presence of rat liver S9 fraction by micronucleus test; format: toxicity, Cricetulus griseus; conditions: chinese hamster

T3 sequence (P08684 whole entry): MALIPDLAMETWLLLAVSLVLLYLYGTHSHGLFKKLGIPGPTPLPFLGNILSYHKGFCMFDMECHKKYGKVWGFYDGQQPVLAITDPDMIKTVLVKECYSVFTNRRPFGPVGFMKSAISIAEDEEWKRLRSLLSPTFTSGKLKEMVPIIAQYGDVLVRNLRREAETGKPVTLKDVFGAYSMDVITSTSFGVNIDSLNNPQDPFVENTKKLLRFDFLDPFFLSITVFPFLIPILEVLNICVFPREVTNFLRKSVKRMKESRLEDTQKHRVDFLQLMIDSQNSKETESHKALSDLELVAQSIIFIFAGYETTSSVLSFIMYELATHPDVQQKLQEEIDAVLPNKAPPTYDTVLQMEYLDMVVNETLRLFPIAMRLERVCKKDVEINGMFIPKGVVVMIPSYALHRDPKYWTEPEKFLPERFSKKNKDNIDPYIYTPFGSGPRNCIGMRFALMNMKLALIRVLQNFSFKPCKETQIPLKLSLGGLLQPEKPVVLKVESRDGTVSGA
Chain of Cytochrome P450 2D6 (P10635 whole entry): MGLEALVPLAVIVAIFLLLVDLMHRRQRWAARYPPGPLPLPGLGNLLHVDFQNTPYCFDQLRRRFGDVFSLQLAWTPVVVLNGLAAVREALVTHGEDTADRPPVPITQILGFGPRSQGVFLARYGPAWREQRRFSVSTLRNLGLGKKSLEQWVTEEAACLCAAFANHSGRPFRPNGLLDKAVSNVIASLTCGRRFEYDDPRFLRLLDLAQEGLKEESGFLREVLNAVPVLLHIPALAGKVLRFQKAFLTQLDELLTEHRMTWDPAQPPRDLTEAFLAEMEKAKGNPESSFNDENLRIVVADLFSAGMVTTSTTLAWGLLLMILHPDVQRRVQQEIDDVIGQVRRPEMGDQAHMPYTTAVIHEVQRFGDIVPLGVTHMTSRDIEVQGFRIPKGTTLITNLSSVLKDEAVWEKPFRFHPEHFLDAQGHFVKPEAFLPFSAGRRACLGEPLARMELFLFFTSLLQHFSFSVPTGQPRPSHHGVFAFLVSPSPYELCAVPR
Chain of Cytochrome P450 1A2 (P05177 whole entry): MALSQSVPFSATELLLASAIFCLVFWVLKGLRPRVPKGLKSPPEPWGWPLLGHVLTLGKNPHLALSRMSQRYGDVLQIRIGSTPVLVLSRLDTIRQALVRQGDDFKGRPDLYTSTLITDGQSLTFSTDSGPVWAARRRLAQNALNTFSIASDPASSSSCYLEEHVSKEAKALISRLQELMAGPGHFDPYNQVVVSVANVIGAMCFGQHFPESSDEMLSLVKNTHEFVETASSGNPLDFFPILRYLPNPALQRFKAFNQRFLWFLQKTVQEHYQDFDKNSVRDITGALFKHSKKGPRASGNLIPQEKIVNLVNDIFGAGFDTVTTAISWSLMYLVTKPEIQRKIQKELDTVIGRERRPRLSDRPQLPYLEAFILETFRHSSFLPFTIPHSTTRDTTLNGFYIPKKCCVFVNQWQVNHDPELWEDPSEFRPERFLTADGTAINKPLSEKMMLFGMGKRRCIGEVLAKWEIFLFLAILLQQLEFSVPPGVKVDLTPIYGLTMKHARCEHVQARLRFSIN
Chain of Cytochrome P450 2C9 (P11712 whole entry): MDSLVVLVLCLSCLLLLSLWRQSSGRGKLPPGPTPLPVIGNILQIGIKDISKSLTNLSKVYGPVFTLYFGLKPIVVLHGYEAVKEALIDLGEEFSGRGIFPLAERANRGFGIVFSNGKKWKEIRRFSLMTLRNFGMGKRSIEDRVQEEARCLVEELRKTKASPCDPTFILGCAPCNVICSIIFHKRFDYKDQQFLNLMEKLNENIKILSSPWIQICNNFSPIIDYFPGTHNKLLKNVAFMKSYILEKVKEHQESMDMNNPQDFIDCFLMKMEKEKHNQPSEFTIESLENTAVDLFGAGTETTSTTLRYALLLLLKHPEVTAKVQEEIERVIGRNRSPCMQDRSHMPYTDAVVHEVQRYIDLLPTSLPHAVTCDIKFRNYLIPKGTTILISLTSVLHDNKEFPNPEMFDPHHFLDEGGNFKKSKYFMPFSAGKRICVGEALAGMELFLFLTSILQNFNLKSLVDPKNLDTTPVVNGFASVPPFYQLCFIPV
Chain of Progesterone receptor (P06401 whole entry): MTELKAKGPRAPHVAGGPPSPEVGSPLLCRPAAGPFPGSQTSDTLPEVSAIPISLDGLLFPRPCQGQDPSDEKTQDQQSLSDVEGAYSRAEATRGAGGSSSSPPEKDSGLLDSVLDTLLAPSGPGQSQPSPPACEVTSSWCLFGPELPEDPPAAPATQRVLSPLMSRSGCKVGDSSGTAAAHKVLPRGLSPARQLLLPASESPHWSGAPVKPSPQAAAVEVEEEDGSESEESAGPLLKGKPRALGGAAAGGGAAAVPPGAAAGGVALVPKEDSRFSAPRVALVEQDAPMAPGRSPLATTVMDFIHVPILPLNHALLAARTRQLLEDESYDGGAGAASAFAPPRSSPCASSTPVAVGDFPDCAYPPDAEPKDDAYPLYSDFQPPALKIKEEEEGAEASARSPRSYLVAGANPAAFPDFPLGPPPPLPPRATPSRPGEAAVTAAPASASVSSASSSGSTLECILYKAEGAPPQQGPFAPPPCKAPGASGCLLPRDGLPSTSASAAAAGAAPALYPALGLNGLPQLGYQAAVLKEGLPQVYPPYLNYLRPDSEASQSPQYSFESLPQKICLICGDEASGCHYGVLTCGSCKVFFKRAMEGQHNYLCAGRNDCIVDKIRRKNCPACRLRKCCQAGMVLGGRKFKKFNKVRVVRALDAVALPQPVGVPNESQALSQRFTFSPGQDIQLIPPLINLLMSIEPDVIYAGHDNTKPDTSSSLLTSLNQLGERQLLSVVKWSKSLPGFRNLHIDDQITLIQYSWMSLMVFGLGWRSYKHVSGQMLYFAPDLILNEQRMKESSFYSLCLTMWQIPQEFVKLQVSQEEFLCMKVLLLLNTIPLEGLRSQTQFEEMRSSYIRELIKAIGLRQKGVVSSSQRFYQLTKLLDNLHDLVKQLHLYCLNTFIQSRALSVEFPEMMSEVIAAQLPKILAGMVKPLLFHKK
Chain of Voltage-gated inwardly rectifying potassium channel KCNH2 (Q12809 whole entry): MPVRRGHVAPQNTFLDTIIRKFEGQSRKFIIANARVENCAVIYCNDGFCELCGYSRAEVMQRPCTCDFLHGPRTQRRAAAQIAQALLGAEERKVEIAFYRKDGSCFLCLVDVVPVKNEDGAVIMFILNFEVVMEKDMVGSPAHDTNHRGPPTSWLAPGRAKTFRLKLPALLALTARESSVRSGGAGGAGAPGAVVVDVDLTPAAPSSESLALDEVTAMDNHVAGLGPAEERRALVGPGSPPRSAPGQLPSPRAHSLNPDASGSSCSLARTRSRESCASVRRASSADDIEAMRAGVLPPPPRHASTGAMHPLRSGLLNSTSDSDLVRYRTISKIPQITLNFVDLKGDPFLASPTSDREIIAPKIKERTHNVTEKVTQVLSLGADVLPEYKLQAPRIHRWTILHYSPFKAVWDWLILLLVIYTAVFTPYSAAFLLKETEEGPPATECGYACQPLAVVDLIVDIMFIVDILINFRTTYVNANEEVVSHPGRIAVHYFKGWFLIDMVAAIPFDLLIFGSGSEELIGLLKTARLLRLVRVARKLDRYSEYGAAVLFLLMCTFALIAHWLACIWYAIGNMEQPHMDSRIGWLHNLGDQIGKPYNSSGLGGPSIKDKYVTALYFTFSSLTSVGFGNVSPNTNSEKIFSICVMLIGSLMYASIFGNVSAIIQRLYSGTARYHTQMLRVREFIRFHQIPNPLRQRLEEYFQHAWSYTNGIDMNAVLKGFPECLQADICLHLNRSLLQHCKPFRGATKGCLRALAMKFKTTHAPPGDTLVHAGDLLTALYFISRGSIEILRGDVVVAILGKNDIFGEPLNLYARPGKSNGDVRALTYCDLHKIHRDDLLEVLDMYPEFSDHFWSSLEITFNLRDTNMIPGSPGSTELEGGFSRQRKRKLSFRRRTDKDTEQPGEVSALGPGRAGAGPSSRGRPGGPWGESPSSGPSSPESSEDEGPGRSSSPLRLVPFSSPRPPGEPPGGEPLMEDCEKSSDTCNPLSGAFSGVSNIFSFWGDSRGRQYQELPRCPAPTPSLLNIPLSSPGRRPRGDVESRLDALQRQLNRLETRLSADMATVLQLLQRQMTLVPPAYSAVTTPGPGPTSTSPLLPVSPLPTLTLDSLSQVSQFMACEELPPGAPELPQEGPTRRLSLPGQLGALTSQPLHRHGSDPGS
Chain of Glucocorticoid receptor (P04150 whole entry): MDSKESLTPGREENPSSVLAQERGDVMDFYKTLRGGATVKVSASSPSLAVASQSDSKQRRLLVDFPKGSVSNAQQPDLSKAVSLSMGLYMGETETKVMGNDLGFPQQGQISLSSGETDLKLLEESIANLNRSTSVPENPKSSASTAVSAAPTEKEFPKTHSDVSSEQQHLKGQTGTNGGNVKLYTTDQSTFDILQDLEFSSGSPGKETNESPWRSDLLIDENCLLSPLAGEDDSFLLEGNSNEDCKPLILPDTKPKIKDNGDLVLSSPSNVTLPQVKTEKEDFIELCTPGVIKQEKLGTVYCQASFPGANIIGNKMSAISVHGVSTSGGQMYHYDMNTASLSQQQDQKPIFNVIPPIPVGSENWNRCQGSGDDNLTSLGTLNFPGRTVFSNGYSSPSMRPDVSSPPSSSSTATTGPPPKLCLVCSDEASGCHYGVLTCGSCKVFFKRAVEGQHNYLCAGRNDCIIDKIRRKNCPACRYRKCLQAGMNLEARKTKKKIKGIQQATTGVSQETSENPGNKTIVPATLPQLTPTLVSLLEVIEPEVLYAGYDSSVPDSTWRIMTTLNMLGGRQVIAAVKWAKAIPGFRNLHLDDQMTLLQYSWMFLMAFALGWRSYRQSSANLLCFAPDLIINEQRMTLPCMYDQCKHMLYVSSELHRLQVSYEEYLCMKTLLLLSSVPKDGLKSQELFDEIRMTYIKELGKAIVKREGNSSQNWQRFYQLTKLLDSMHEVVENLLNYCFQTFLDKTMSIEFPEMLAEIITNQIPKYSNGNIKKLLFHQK

Cc1cn(C2=CCC3C4CC=C5C[C@@H](NC(=O)c6ccc(F)cc6)CC[C@]5(C)C4CC[C@]23C)cn1 (stereo partly specified)
IC50 (LNCaP): 473 nM | IC50 [1]: > 40000 nM | EC50 (Androgen receptor): 1280 nM | IC50 [2]: 100 nM | half-life [3]: 3.28 h | Tmax [4]: 4 h | Cmax [5]: 6430 ng/mL | AUCt [6]: 68872 h/ng/mL | Activity [7]: -64% | Activity [8]: -65% | inhibition in vivo at 10 mg/kg [9]: 56% | Activity [10]: Non-Toxic | Activity [11]: Non-Toxic | Activity [12]: Non-Toxic | IC50 (Progesterone receptor): > 30000 nM | IC50 (Glucocorticoid receptor): > 30000 nM | IC50 (Estrogen receptor): 103 nM | IC50 (Cytochrome P450 1A2): 25000 nM | IC50 (Cytochrome P450 2C19): 4100 nM | IC50 (Cytochrome P450 2C9): 30800 nM | IC50 (Cytochrome P450 2D6): 50000 nM | IC50 (Cytochrome P450 3A4 [13]): 1250 nM | IC50 (Cytochrome P450 3A4 [14]): 810 nM | inhibition (INH) [15]: Not Active | Activity [16]: Non-Toxic | Activity [17]: Non-Toxic | Activity [18]: Non-Toxic | Activity [19]: Non-Toxic | Activity [20]: Non-Toxic | Activity [21]: Non-Toxic | Activity [22]: Non-Toxic | Activity [23]: Non-Toxic | Activity [24]: Non-Toxic | Activity [25]: Non-Toxic | Activity [26]: Non-Toxic | Activity [27]: Non-Toxic
